# Assay results reported in US20240368135A1 (VERTEX PHARMACEUTICALS INCORPORATED, priority 2021, published 2024).
# Target: human NaV 1.8 (Homo sapiens, UniProt Q9Y5Y9)
# Assay: E-VIPR assay detecting and measuring NaV inhibition properties
# Assay type: cell-based
# Settings: HEK cells expressing truncated human NaV 1.8; no human serum; read-out: IC50 in the E-VIPR Assay
# Method in brief: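 HEK cells expressing truncated, fully active human NaV1.8, with KIR2.1 BacMam co-transduction, were loaded with CC2-DMPE/DiSBAC6(3) voltage-sensing dyes for 20 min at room temperature. Compounds were tested in 11-point 3-fold dilutions (300 nM top final), optionally with 25% human serum, under electrical stimulation with FRET read-out.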
# human NaV 1.8, sequence (Q9Y5Y9 126-399 limits assumed): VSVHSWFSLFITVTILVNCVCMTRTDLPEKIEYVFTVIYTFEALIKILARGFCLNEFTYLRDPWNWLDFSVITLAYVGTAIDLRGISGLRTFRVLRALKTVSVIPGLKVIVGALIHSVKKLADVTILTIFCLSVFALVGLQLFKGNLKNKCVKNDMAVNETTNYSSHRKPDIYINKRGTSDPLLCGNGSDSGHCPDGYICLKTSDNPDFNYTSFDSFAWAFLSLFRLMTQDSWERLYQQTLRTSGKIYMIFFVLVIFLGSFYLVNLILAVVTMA
# human NaV 1.8, sequence (Q9Y5Y9 660-890 limits assumed): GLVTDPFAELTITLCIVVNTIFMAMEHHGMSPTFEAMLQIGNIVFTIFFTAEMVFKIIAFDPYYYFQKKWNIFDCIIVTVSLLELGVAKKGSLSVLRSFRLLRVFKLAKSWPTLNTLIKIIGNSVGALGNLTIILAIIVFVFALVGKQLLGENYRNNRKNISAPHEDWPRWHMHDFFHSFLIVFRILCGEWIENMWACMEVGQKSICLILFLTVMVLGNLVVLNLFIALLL
# human NaV 1.8, sequence (Q9Y5Y9 1148-1722 limits assumed): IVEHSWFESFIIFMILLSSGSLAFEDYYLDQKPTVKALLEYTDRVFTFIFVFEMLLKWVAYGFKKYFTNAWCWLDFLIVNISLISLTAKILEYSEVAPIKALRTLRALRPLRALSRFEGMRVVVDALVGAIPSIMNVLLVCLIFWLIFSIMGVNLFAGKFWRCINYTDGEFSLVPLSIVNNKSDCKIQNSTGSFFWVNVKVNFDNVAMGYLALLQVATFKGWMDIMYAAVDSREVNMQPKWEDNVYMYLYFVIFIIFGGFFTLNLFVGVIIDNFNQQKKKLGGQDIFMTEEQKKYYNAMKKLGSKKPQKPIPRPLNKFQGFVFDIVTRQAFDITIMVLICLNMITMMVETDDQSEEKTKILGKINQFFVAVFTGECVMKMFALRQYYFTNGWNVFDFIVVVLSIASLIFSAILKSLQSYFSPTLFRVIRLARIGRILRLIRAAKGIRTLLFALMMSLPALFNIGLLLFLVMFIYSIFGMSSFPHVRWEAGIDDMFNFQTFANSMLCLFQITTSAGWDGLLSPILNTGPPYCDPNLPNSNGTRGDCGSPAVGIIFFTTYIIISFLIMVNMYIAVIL
row,IC50,Compound
1,< 10 nM,"COc1c([C@H]2[C@H](C(=O)Nc3ccc(C(N)=O)nc3)O[C@@](C)(C(F)(F)F)[C@H]2C)cccc1C(F)(F)F (stereo in doubt) [Compound 156, rel-5-((2R,3S,4S,5R)-3-(2-methoxy-3-(trifluoromethyl)phenyl)-4,5-dimethyl-5-(trifluoromethyl)tetrahydrofuran-2-carboxamido)picolinamide]"
2,≥ 1000 nM,"COc1c([C@@H]2[C@@H](C(=O)Nc3ccc(C(N)=O)nc3)O[C@](C)(C(F)(F)F)[C@@H]2C)cccc1C(F)(F)F (stereo in doubt) [Compound 157, rel-5-((2S,3R,4R,5S)-3-(2-methoxy-3-(trifluoromethyl)phenyl)-4,5-dimethyl-5-(trifluoromethyl)tetrahydrofuran-2-carboxamido)picolinamide]"
3,100 to 1000 nM,"COc1c([C@@H]2[C@@H](C(=O)Nc3ccc4cnnn4c3)O[C@](C)(C(F)(F)F)[C@@H]2C)ccc(F)c1C(F)F (stereo in doubt) [Compound 160, rel-(2S,3R,4R,5S)-N-([1,2,3]triazolo[1,5-a]pyridin-6-yl)-3-(3-(difluoromethyl)-4-fluoro-2-methoxyphenyl)-4,5-dimethyl-5-(trifluoromethyl)tetrahydrofuran-2-carboxamide]"
4,< 10 nM,"COc1c([C@H]2[C@H](C(=O)Nc3ccc4cnnn4c3)O[C@@](C)(C(F)(F)F)[C@H]2C)ccc(F)c1C(F)F (stereo in doubt) [Compound 161, rel-(2R,3S,4S,5R)—N-([1,2,3]triazolo[1,5-a]pyridin-6-yl)-3-(3-(difluoromethyl)-4-fluoro-2-methoxyphenyl)-4,5-dimethyl-5-(trifluoromethyl)tetrahydrofuran-2-carboxamide]"
5,< 10 nM,"COc1c([C@H]2[C@H](C(=O)Nc3ccc(C(N)=O)nc3)O[C@@](C)(C(F)(F)F)[C@H]2C)ccc(F)c1C(F)F (stereo in doubt) [Compound 168, rel-5-((2R,3S,4S,5R)-3-(3-(difluoromethyl)-4-fluoro-2-methoxyphenyl)-4,5-dimethyl-5-(trifluoromethyl)tetrahydrofuran-2-carboxamido)picolinamide]"
6,≥ 1000 nM,"COc1c([C@@H]2[C@@H](C(=O)Nc3ccc(C(N)=O)nc3)O[C@](C)(C(F)(F)F)[C@@H]2C)ccc(F)c1C(F)F (stereo in doubt) [Compound 169, rel-5-((2S,3R,4R,5S)-3-(3-(difluoromethyl)-4-fluoro-2-methoxyphenyl)-4,5-dimethyl-5-(trifluoromethyl)tetrahydrofuran-2-carboxamido)picolinamide]"
7,< 10 nM,"CNC(=O)c1ccc(NC(=O)[C@@H]2O[C@@](C)(C(F)(F)F)[C@@H](C)[C@H]2c2ccc(F)c(C(F)F)c2OC)cn1 (stereo in doubt) [Compound 170, rel-5-((2R,3S,4S,5R)-3-(3-(difluoromethyl)-4-fluoro-2-methoxyphenyl)-4,5-dimethyl-5-(trifluoromethyl)tetrahydrofuran-2-carboxamido)-N-methylpicolinamide]"
8,10 to 100 nM,"CNC(=O)c1ccc(NC(=O)[C@H]2O[C@](C)(C(F)(F)F)[C@H](C)[C@@H]2c2ccc(F)c(C(F)F)c2OC)cn1 (stereo in doubt) [Compound 171, rel-5-((2S,3R,4R,5S)-3-(3-(difluoromethyl)-4-fluoro-2-methoxyphenyl)-4,5-dimethyl-5-(trifluoromethyl)tetrahydrofuran-2-carboxamido)-N-methylpicolinamide]"
9,≥ 1000 nM,"COc1c([C@@H]2[C@@H](C(=O)Nc3cnc(C(N)=O)nc3)O[C@](C)(C(F)(F)F)[C@@H]2C)ccc(F)c1C(F)F (stereo in doubt) [Compound 172, rel-5((2S,3R,4R,5S)-3-(3-(difluoromethyl)-4-fluoro-2-methoxy-phenyl)-4,5-dimethyl-5-(trifluoromethyl)tetrahydrofuran-2-carboxamido)pyrimidine-2-carboxamide]"
10,< 10 nM,"COc1c([C@H]2[C@H](C(=O)Nc3cnc(C(N)=O)nc3)O[C@@](C)(C(F)(F)F)[C@H]2C)ccc(F)c1C(F)F (stereo in doubt) [Compound 173, rel-5-((2R,3S,4S,5R)-3-(3-(difluoromethyl)-4-fluoro-2-methoxyphenyl)-4,5-dimethyl-5-(trifluoromethyl)tetrahydrofuran-2-carboxamido)pyrimidine-2-carboxamide]"
11,≥ 1000 nM,"COCc1c(F)ccc([C@@H]2[C@@H](C(=O)Nc3ccc(C(N)=O)nc3)O[C@](C)(C(F)(F)F)[C@@H]2C)c1OC (stereo in doubt) [Compound 178, rel-5-((2S,3R,4R,5S)-3-(4-fluoro-2-methoxy-3-(methoxymethyl)phenyl)-4,5-dimethyl-5-(trifluoromethyl)tetrahydrofuran-2-carboxamido)picolinamide]"
12,10 to 100 nM,"COCc1c(F)ccc([C@H]2[C@H](C(=O)Nc3ccc(C(N)=O)nc3)O[C@@](C)(C(F)(F)F)[C@H]2C)c1OC (stereo in doubt) [Compound 179, rel-5-((2R,3S,4S,5R)-3-(4-fluoro-2-methoxy-3-(methoxymethyl)phenyl)-4,5-dimethyl-5-(trifluoromethyl)tetrahydrofuran-2-carboxamido)picolinamide]"
13,≥ 1000 nM,"COc1c([C@@H]2[C@@H](C(=O)Nc3ccnc(S(=O)(=O)N(C)C)c3)O[C@](C)(C(F)(F)F)[C@@H]2C)ccc(F)c1F (stereo in doubt) [Compound 448, rel-(2S,3R,4R,5S)-3-(3,4-difluoro-2-methoxyphenyl)-N-(2-(N,N-dimethylsulfamoyl)pyridin-4-yl)-4,5-dimethyl-5-(trifluoromethyl)tetrahydrofuran-2-carboxamide]"
14,< 10 nM,"COc1c([C@H]2[C@H](C(=O)Nc3ccnc(S(=O)(=O)N(C)C)c3)O[C@@](C)(C(F)(F)F)[C@H]2C)ccc(F)c1F (stereo in doubt) [Compound 449, rel-(2R,3S,4S,5R)-3-(3,4-difluoro-2-methoxyphenyl)-N-(2-(N,N-dimethylsulfamoyl)pyridin-4-yl)-4,5-dimethyl-5-(trifluoromethyl)tetrahydrofuran-2-carboxamide]"

# More lines, now with the values behind:
row,Compound,IC50
1,"CCOc1c([C@@H]2[C@@H](C(=O)Nc3cncc(S(C)(=O)=O)c3)O[C@](C)(C(F)(F)F)[C@@H]2C)ccc(F)c1F (stereo in doubt) [Compound 106, rel-(2S,3R,4R,5S)-3-(2-ethoxy-3,4-difluorophenyl)-4,5-dimethyl-N-(5-(methylsulfonyl)pyridin-3-yl)-5-(trifluoromethyl)tetrahydrofuran-2-carboxamide]",100 to 1000 nM
2,"CCOc1c([C@H]2[C@H](C(=O)Nc3cncc(S(C)(=O)=O)c3)O[C@@](C)(C(F)(F)F)[C@H]2C)ccc(F)c1F (stereo in doubt) [Compound 107, rel-(2R,3S,4S,5R)-3-(2-ethoxy-3,4-difluorophenyl)-4,5-dimethyl-N-(5-(methylsulfonyl)pyridin-3-yl)-5-(trifluoromethyl)tetrahydrofuran-2-carboxamide]",< 10 nM
3,"CCOc1c([C@H]2[C@H](C(=O)Nc3ccnc(S(C)(=O)=O)c3)O[C@@](C)(C(F)(F)F)[C@H]2C)ccc(F)c1F (stereo in doubt) [Compound 108, rel-(2R,3S,4S,5R)-3-(2-ethoxy-3,4-difluorophenyl)-4,5-dimethyl-N-(2-(methylsulfonyl)pyridin-4-yl)-5-(trifluoromethyl)tetrahydrofuran-2-carboxamide]",< 10 nM
4,"CCOc1c([C@H]2[C@H](C(=O)Nc3ccn4nnnc4c3)O[C@@](C)(C(F)(F)F)[C@H]2C)ccc(F)c1C (stereo in doubt) [Compound 121, rac-(2R,3S,4S,5R)-3-(2-ethoxy-4-fluoro-3-methylphenyl)-4,5-dimethyl-N-(tetrazolo[1,5-a]pyridin-7-yl)-5-(trifluoromethyl)tetrahydrofuran-2-carboxamide]",< 10 nM
5,"CCOc1c([C@@H]2[C@@H](C(=O)Nc3ccn4nnnc4c3)O[C@](C)(C(F)(F)F)[C@@H]2C)ccc(F)c1C (stereo in doubt) [Compound 122, rel-(2S,3R,4R,5S)-3-(2-ethoxy-4-fluoro-3-methylphenyl)-4,5-dimethyl-N-(tetrazolo[1,5-a]pyridin-7-yl)-5-(trifluoromethyl)tetrahydrofuran-2-carboxamide]",100 to 1000 nM
6,"CCOc1c([C@H]2[C@H](C(=O)Nc3ccn4nnnc4c3)O[C@@](C)(C(F)(F)F)[C@H]2C)ccc(F)c1C (stereo in doubt) [Compound 123, rel-(2R,3S,4S,5R)-3-(2-ethoxy-4-fluoro-3-methylphenyl)-4,5-dimethyl-N-(tetrazolo[1,5-a]pyridin-7-yl)-5-(trifluoromethyl)tetrahydrofuran-2-carboxamide]",< 10 nM
7,"C[C@@H]1[C@H](c2ccc(F)c(F)c2)[C@@H](C(=O)Nc2ccnc(S(C)(=O)=O)c2)O[C@]1(C)C(F)(F)F (stereo in doubt) [Compound 154, rel-(2S,3R,4R,5S)-3-(3,4-difluorophenyl)-4,5-dimethyl-N-(2-(methylsulfonyl)pyridin-4-yl)-5-(trifluoromethyl)tetrahydrofuran-2-carboxamide]",≥ 1000 nM
8,"C[C@H]1[C@@H](c2ccc(F)c(F)c2)[C@H](C(=O)Nc2ccnc(S(C)(=O)=O)c2)O[C@@]1(C)C(F)(F)F (stereo in doubt) [Compound 155, rel-(2R,3S,4S,5R)-3-(3,4-difluorophenyl)-4,5-dimethyl-N-(2-(methylsulfonyl)pyridin-4-yl)-5-(trifluoromethyl)tetrahydrofuran-2-carboxamide]",10 to 100 nM
9,"COc1c([C@@H]2[C@@H](C(=O)Nc3cncc(S(=O)(=O)N(C)C)c3)O[C@](C)(C(F)(F)F)[C@@H]2C)ccc(F)c1F (stereo in doubt) [Compound 452, rel-(2S,3R,4R,5S)-3-(3,4-difluoro-2-methoxyphenyl)-N-(5-(N,N-dimethylsulfamoyl)pyridin-3-yl)-4,5-dimethyl-5-(trifluoromethyl)tetrahydrofuran-2-carboxamide]",≥ 1000 nM
